The source of these data is ChEMBL document CHEMBL4396916, “Novel potent substituted 4-amino-2-thiopyrimidines as dual VEGFR-2 and BRAF kinase inhibitors” (Eur J Med Chem, 2019).

The target of experiment [1] is RAF proto-oncogene serine/threonine-protein kinase (Homo sapiens, UniProt P04049). In words: Inhibition of RAF1 (unknown origin).
The subject of experiment [2] is CCRF-CEM. In words: Growth inhibition of human CCRF-CEM cells at 10 uM incubated for 48 hrs by sulforhodamine B assay relative to control. The note with it: read-out: GI. The class given is functional. In general terms: In SRB staining, fixed cells bind dye roughly in proportion to their protein.
Experiment [3] relates to HL-60(TB). In words: Growth inhibition of human HL-60(TB) cells at 10 uM incubated for 48 hrs by sulforhodamine B assay relative to control. It is filed as functional. Particulars: HL-60, 48 h, read-out: GI.
Experiment [4] deals with A549. Nature of the experiment: Growth inhibition of human A549/ATCC cells at 10 uM incubated for 48 hrs by sulforhodamine B assay relative to control. The class given is functional. Particulars: A549, 48 h, read-out: GI.
Experiment [5] relates to EKVX. Nature of the experiment: Growth inhibition of human EKVX cells at 10 uM incubated for 48 hrs by sulforhodamine B assay relative to control. It is filed as functional. The note with it: read-out: GI.
Experiment [6] deals with NCI-H226. Nature of the experiment: Growth inhibition of human NCI-H226 cells at 10 uM incubated for 48 hrs by sulforhodamine B assay relative to control. It is filed as functional. Particulars: NCI-H226, 48 h, read-out: GI.
The subject of experiment [7] is COLO 205. Nature of the experiment: Growth inhibition of human COLO205 cells at 10 uM incubated for 48 hrs by sulforhodamine B assay relative to control. The note with it: COLO 205, 48 h, read-out: GI. The class given is functional.
In experiment [8] the test system is HCT-116. In words: Growth inhibition of human HCT116 cells at 10 uM incubated for 48 hrs by sulforhodamine B assay relative to control. It is filed as functional. Particulars: HCT-116, 48 h, read-out: GI.
For experiment [9], the system named is HCT-15. Nature of the experiment: Growth inhibition of human HCT15 cells at 10 uM incubated for 48 hrs by sulforhodamine B assay relative to control. The class given is functional. The note with it: HCT-15, 48 h, read-out: GI.
Experiment [10] relates to HT-29. Nature of the experiment: Growth inhibition of human HT-29 cells at 10 uM incubated for 48 hrs by sulforhodamine B assay relative to control. It is filed as functional. The note with it: HT-29, 48 h, read-out: GI.
Experiment [11] relates to KM12. In words: Growth inhibition of human KM12 cells at 10 uM incubated for 48 hrs by sulforhodamine B assay relative to control. It is filed as functional. Particulars: KM12, 48 h, read-out: GI.
The test system of experiment [12] is SW-620. Nature of the experiment: Growth inhibition of human SW620 cells at 10 uM incubated for 48 hrs by sulforhodamine B assay relative to control. The class given is functional. The note with it: SW-620, 48 h, read-out: GI.
Experiment [13] concerns SF-268. Nature of the experiment: Growth inhibition of human SF268 cells at 10 uM incubated for 48 hrs by sulforhodamine B assay relative to control. It is filed as functional. Particulars: SF-268, 48 h, read-out: GI.
In experiment [14] the test system is SF-295. Nature of the experiment: Growth inhibition of human SF295 cells at 10 uM incubated for 48 hrs by sulforhodamine B assay relative to control. Particulars: SF-295, 48 h, read-out: GI. The class given is functional.
For experiment [15], the system named is SF-539. Nature of the experiment: Growth inhibition of human SF539 cells at 10 uM incubated for 48 hrs by sulforhodamine B assay relative to control. It is filed as functional. Particulars: SF-539, 48 h, read-out: GI.
In experiment [16] the test system is LOX IMVI. Nature of the experiment: Growth inhibition of human LOXIMVI cells at 10 uM incubated for 48 hrs by sulforhodamine B assay relative to control. The class given is functional. Particulars: read-out: GI.
The test system of experiment [17] is M14. In words: Growth inhibition of human M14 cells at 10 uM incubated for 48 hrs by sulforhodamine B assay relative to control. The class given is functional. The note with it: M14, 48 h, read-out: GI.
Experiment [18] deals with UACC-62. In words: Growth inhibition of human UACC62 cells at 10 uM incubated for 48 hrs by sulforhodamine B assay relative to control. The class given is functional. The note with it: UACC-62, 48 h, read-out: GI.
The subject of experiment [19] is IGROV-1. In words: Growth inhibition of human IGROV1 cells at 10 uM incubated for 48 hrs by sulforhodamine B assay relative to control. The class given is functional. Particulars: IGROV-1, 48 h, read-out: GI.
Experiment [20] has as its system TK-10. Nature of the experiment: Growth inhibition of human TK10 cells at 10 uM incubated for 48 hrs by sulforhodamine B assay relative to control. It is filed as functional. Particulars: TK-10, 48 h, read-out: GI.
Experiment [21] has as its system UO-31. Nature of the experiment: Growth inhibition of human UO31 cells at 10 uM incubated for 48 hrs by sulforhodamine B assay relative to control. The class given is functional. The note with it: UO-31, 48 h, read-out: GI.
For experiment [22], the system named is T47D. In words: Growth inhibition of human T47D cells at 10 uM incubated for 48 hrs by sulforhodamine B assay relative to control. It is filed as functional. The note with it: read-out: GI.
For experiment [23], the system named is MCF7. In words: Cytotoxicity against human MCF7 cells expressing VEGFR2 and wild type BRAF measured after 48 hrs by sulforhodamine B assay. It is filed as functional, cell-based. Particulars: MCF7, 48 h.
Experiment [24] has as its system T47D. In words: Cytotoxicity against human T47D cells expressing wild type BRAF measured after 48 hrs by sulforhodamine B assay. It is filed as functional, cell-based.
Experiment [25] deals with HOP-92. Nature of the experiment: Growth inhibition of human HOP92 cells at 10 uM incubated for 48 hrs by sulforhodamine B assay relative to control. The class given is functional. Particulars: HOP-92, 48 h, read-out: GI.
Experiment [26] relates to SNB-75. Nature of the experiment: Growth inhibition of human SNB75 cells at 10 uM incubated for 48 hrs by sulforhodamine B assay relative to control. It is filed as functional. The note with it: SNB-75, 48 h, read-out: GI.
Experiment [27] deals with RXF 393. In words: Growth inhibition of human RXF393 cells at 10 uM incubated for 48 hrs by sulforhodamine B assay relative to control. It is filed as functional. The note with it: RXF 393, 48 h, read-out: GI.
The subject of experiment [28] is Hs-578T. Nature of the experiment: Growth inhibition of human Hs578T cells at 10 uM incubated for 48 hrs by sulforhodamine B assay relative to control. It is filed as functional. Particulars: read-out: GI.

pIC50: −log10 of the molar value.

RAF proto-oncogene serine/threonine-protein kinase, sequence (P04049 whole entry): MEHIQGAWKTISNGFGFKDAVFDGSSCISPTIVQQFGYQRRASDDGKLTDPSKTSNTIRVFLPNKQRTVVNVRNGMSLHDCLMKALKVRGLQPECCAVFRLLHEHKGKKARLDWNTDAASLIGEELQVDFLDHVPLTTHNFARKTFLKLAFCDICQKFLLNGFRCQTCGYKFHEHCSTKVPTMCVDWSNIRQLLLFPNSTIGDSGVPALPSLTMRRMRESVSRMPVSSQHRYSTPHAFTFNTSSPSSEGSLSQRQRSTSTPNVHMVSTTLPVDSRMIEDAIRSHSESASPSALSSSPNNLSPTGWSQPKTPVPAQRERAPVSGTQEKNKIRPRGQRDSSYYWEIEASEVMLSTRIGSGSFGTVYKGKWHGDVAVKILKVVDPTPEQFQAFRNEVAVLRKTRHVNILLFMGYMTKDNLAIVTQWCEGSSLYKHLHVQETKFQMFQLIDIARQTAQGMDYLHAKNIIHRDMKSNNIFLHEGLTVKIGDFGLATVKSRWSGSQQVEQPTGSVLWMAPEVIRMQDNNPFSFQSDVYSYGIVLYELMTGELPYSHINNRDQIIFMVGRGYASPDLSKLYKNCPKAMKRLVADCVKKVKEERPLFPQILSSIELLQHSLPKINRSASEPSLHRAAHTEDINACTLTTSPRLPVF

Broadly, the pIC50 is the IC50 on a negative log10 scale, so that one unit is a factor of ten. Higher therefore signals a small IC50. As to `CCOC(=O)c1ccc(Nc2ccnc(SCC(=O)c3ccc(C#N)cc3)n2)cc1`, the values for the pIC50 in [1], in [23] and in experiment [24] were 6.39, 4.89 and 5.66, respectively. The inhibition of growth at 10 µM in [2] came out at 82%; in experiment [3], 24%; in [4] it was 39%; in experiment [5], 26%; in [6], 38%; in experiment [7], 29%. Besides, the inhibition of growth at 10 µM in [8] turned out to be 28%; in [9], 24%; in experiment [10], 24%; in experiment [11] it was 45%; in [12], 10%; in experiment [13] it was 22%. Further, the inhibition of growth at 10 µM in experiment [14] is 24%; in experiment [15], 17%; in [16] it was 20%; in experiment [17] it was 49%; in experiment [18], 61%; in experiment [19], 21%. The inhibition of growth at 10 µM in experiment [20] amounted to 10%; in experiment [21], 52%; in experiment [22], 90%.

`O=C(CSc1nccc(Nc2ccc(N3CCOCC3)cc2)n1)c1ccc(F)cc1`: the figures for the pIC50 in experiment [1], in experiment [23] and in experiment [24] were 6.89, 4.57 and 4.84, respectively. Moreover, the inhibition of growth at 10 µM turned out to be 19% in experiment [2]; 23% in experiment [5]; 26% in [25]; 45% in experiment [6]; 32% in experiment [8]; 35% in experiment [13]. Further, the inhibition of growth at 10 µM in [26] was 65%; in experiment [16] it was 15%; in experiment [18] it was 28%; in [27], 43%; in [21], 27%; in experiment [28], 39%. Besides, the inhibition of growth at 10 µM in [22] turned out to be 34%.
